Measured values reported in the supplement of paper PMC4862054.

tested on: CAL-120; assay: normalised viability (% of control), CellTiter-Blue; higher = more viable cells (about 100 = DMSO control); conditions: 10 nM; incubation time: 72 h
In short: (§1)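 Vehicle (100) and a positive kill control (0) anchored the normalisation of each plate, and Z'-factor was used for quality control. Breast cancer cell lines in 20 µl suspension were incubated 72 h over compound in 5 µl medium in 384-well plates, followed by CellTiter-Blue at 560/590 nm. The value is normalised viability at a single listed concentration of the series.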

SMILES	normalised viability
O=C(/C=C/c1cccc(S(=O)(=O)Nc2ccccc2)c1)NO [Belinostat]	87.7%
C=C1C[C@@H]2[C@H](CC[C@]3(C)C(=O)CC[C@@H]23)[C@@]2(C)C=CC(=O)C=C12 [Exemestane]	96.1%

same assay, conditions: 40 nM; incubation time: 72 h

SMILES	normalised viability
O=P1(N(CCCl)CCCl)NCCCO1 (stereo unspecified) [Cyclophosphamide]	97.1%

same assay, conditions: 1000 nM; incubation time: 72 h

SMILES	normalised viability
Cc1cc(Nc2cc(CN3CCOCC3)c3nc(C)c(Cc4ccc(Cl)cc4F)n3n2)n[nH]1	57.6%
N#Cc1ccc(COC[C@H]2O[C@@H](n3c(NCc4ccc(Cl)c(Cl)c4)nc4c(N)ncnc43)[C@H](O)[C@@H]2O)cc1	110%
COc1cc(OC2CCN(C)CC2)ccc1Nc1ncc2c(n1)n(C1CCCC1)c(=O)n2C [AZ 3146]	109%
CN(C)c1nc(N(C)C)nc(N(C)C)n1 [Altretamine]	98.5%
COC(=O)c1ccc2c(c1)NC(=O)/C2=C(\Nc1ccc(N(C)C(=O)CN2CCN(C)CC2)cc1)c1ccccc1 [BIBF 1120]	75.5%
Nc1cc(C(F)(F)F)c(-c2cc(N3CCOCC3)nc(N3CCOCC3)n2)cn1 [BKM-120]	54.5%
O=C(/C=C/c1cccc(S(=O)(=O)Nc2ccccc2)c1)NO [Belinostat]	20.5%
C=C1C[C@@H]2[C@H](CC[C@]3(C)C(=O)CC[C@@H]23)[C@@]2(C)C=CC(=O)C=C12 [Exemestane]	92.7%

same assay, conditions: 4000 nM; incubation time: 72 h

SMILES	normalised viability
O=P1(N(CCCl)CCCl)NCCCO1 (stereo unspecified) [Cyclophosphamide]	95.7%

same assay, conditions: 10000 nM; incubation time: 72 h

SMILES	normalised viability
Cc1cc(Nc2cc(CN3CCOCC3)c3nc(C)c(Cc4ccc(Cl)cc4F)n3n2)n[nH]1	14.8%
N#Cc1ccc(COC[C@H]2O[C@@H](n3c(NCc4ccc(Cl)c(Cl)c4)nc4c(N)ncnc43)[C@H](O)[C@@H]2O)cc1	62.4%
COc1cc(OC2CCN(C)CC2)ccc1Nc1ncc2c(n1)n(C1CCCC1)c(=O)n2C [AZ 3146]	76.5%
CN(C)c1nc(N(C)C)nc(N(C)C)n1 [Altretamine]	105%
COC(=O)c1ccc2c(c1)NC(=O)/C2=C(\Nc1ccc(N(C)C(=O)CN2CCN(C)CC2)cc1)c1ccccc1 [BIBF 1120]	29.7%
Nc1cc(C(F)(F)F)c(-c2cc(N3CCOCC3)nc(N3CCOCC3)n2)cn1 [BKM-120]	13.5%
O=C(/C=C/c1cccc(S(=O)(=O)Nc2ccccc2)c1)NO [Belinostat]	3.33%
C=C1C[C@@H]2[C@H](CC[C@]3(C)C(=O)CC[C@@H]23)[C@@]2(C)C=CC(=O)C=C12 [Exemestane]	84%

same assay, conditions: 40000 nM; incubation time: 72 h

SMILES	normalised viability
O=P1(N(CCCl)CCCl)NCCCO1 (stereo unspecified) [Cyclophosphamide]	83.8%

tested on: CAL-148; assay: as above; conditions: 3 nM; incubation time: 72 h
In short: as §1

SMILES	normalised viability
Cc1cc(Nc2cc(CN3CCOCC3)c3nc(C)c(Cc4ccc(Cl)cc4F)n3n2)n[nH]1	84.1%
N#Cc1ccc(COC[C@H]2O[C@@H](n3c(NCc4ccc(Cl)c(Cl)c4)nc4c(N)ncnc43)[C@H](O)[C@@H]2O)cc1	101%
COc1cc(OC2CCN(C)CC2)ccc1Nc1ncc2c(n1)n(C1CCCC1)c(=O)n2C [AZ 3146]	111%
CN(C)c1nc(N(C)C)nc(N(C)C)n1 [Altretamine]	99.5%
COC(=O)c1ccc2c(c1)NC(=O)/C2=C(\Nc1ccc(N(C)C(=O)CN2CCN(C)CC2)cc1)c1ccccc1 [BIBF 1120]	93.5%
Nc1cc(C(F)(F)F)c(-c2cc(N3CCOCC3)nc(N3CCOCC3)n2)cn1 [BKM-120]	94.3%
O=C(/C=C/c1cccc(S(=O)(=O)Nc2ccccc2)c1)NO [Belinostat]	90.7%
C=C1C[C@@H]2[C@H](CC[C@]3(C)C(=O)CC[C@@H]23)[C@@]2(C)C=CC(=O)C=C12 [Exemestane]	95.1%

same assay, conditions: 12 nM; incubation time: 72 h

SMILES	normalised viability
O=P1(N(CCCl)CCCl)NCCCO1 (stereo unspecified) [Cyclophosphamide]	100%

same assay, conditions: 30 nM; incubation time: 72 h

SMILES	normalised viability
Cc1cc(Nc2cc(CN3CCOCC3)c3nc(C)c(Cc4ccc(Cl)cc4F)n3n2)n[nH]1	87.7%
N#Cc1ccc(COC[C@H]2O[C@@H](n3c(NCc4ccc(Cl)c(Cl)c4)nc4c(N)ncnc43)[C@H](O)[C@@H]2O)cc1	105%
COc1cc(OC2CCN(C)CC2)ccc1Nc1ncc2c(n1)n(C1CCCC1)c(=O)n2C [AZ 3146]	102%
CN(C)c1nc(N(C)C)nc(N(C)C)n1 [Altretamine]	96.7%
COC(=O)c1ccc2c(c1)NC(=O)/C2=C(\Nc1ccc(N(C)C(=O)CN2CCN(C)CC2)cc1)c1ccccc1 [BIBF 1120]	99%
Nc1cc(C(F)(F)F)c(-c2cc(N3CCOCC3)nc(N3CCOCC3)n2)cn1 [BKM-120]	104%
O=C(/C=C/c1cccc(S(=O)(=O)Nc2ccccc2)c1)NO [Belinostat]	97.2%
C=C1C[C@@H]2[C@H](CC[C@]3(C)C(=O)CC[C@@H]23)[C@@]2(C)C=CC(=O)C=C12 [Exemestane]	88.7%

same assay, conditions: 100 nM; incubation time: 72 h

SMILES	normalised viability
Cc1cc(Nc2cc(CN3CCOCC3)c3nc(C)c(Cc4ccc(Cl)cc4F)n3n2)n[nH]1	88.2%
N#Cc1ccc(COC[C@H]2O[C@@H](n3c(NCc4ccc(Cl)c(Cl)c4)nc4c(N)ncnc43)[C@H](O)[C@@H]2O)cc1	99.3%
COc1cc(OC2CCN(C)CC2)ccc1Nc1ncc2c(n1)n(C1CCCC1)c(=O)n2C [AZ 3146]	115%
CN(C)c1nc(N(C)C)nc(N(C)C)n1 [Altretamine]	104%
COC(=O)c1ccc2c(c1)NC(=O)/C2=C(\Nc1ccc(N(C)C(=O)CN2CCN(C)CC2)cc1)c1ccccc1 [BIBF 1120]	97.7%
Nc1cc(C(F)(F)F)c(-c2cc(N3CCOCC3)nc(N3CCOCC3)n2)cn1 [BKM-120]	98.7%
O=C(/C=C/c1cccc(S(=O)(=O)Nc2ccccc2)c1)NO [Belinostat]	81.7%
C=C1C[C@@H]2[C@H](CC[C@]3(C)C(=O)CC[C@@H]23)[C@@]2(C)C=CC(=O)C=C12 [Exemestane]	87%

same assay, conditions: 120 nM; incubation time: 72 h

SMILES	normalised viability
O=P1(N(CCCl)CCCl)NCCCO1 (stereo unspecified) [Cyclophosphamide]	102%

same assay, conditions: 400 nM; incubation time: 72 h

SMILES	normalised viability
O=P1(N(CCCl)CCCl)NCCCO1 (stereo unspecified) [Cyclophosphamide]	109%

tested on: CAL-51; assay: as above; conditions: 3 nM; incubation time: 72 h
In short: as §1

SMILES	normalised viability
Cc1cc(Nc2cc(CN3CCOCC3)c3nc(C)c(Cc4ccc(Cl)cc4F)n3n2)n[nH]1	97.1%
N#Cc1ccc(COC[C@H]2O[C@@H](n3c(NCc4ccc(Cl)c(Cl)c4)nc4c(N)ncnc43)[C@H](O)[C@@H]2O)cc1	118%
COc1cc(OC2CCN(C)CC2)ccc1Nc1ncc2c(n1)n(C1CCCC1)c(=O)n2C [AZ 3146]	97.5%
CN(C)c1nc(N(C)C)nc(N(C)C)n1 [Altretamine]	113%
COC(=O)c1ccc2c(c1)NC(=O)/C2=C(\Nc1ccc(N(C)C(=O)CN2CCN(C)CC2)cc1)c1ccccc1 [BIBF 1120]	104%
Nc1cc(C(F)(F)F)c(-c2cc(N3CCOCC3)nc(N3CCOCC3)n2)cn1 [BKM-120]	100%
O=C(/C=C/c1cccc(S(=O)(=O)Nc2ccccc2)c1)NO [Belinostat]	101%
C=C1C[C@@H]2[C@H](CC[C@]3(C)C(=O)CC[C@@H]23)[C@@]2(C)C=CC(=O)C=C12 [Exemestane]	101%

same assay, conditions: 12 nM; incubation time: 72 h

SMILES	normalised viability
O=P1(N(CCCl)CCCl)NCCCO1 (stereo unspecified) [Cyclophosphamide]	111%

same assay, conditions: 30 nM; incubation time: 72 h

SMILES	normalised viability
Cc1cc(Nc2cc(CN3CCOCC3)c3nc(C)c(Cc4ccc(Cl)cc4F)n3n2)n[nH]1	95.2%
N#Cc1ccc(COC[C@H]2O[C@@H](n3c(NCc4ccc(Cl)c(Cl)c4)nc4c(N)ncnc43)[C@H](O)[C@@H]2O)cc1	110%
COc1cc(OC2CCN(C)CC2)ccc1Nc1ncc2c(n1)n(C1CCCC1)c(=O)n2C [AZ 3146]	88.7%
CN(C)c1nc(N(C)C)nc(N(C)C)n1 [Altretamine]	108%
